Assay results from US20250250258A1, “CRYSTAL FORM OF FGFR4 SELECTIVE INHIBITOR COMPOUND, AND PREPARATION METHOD THEREFOR AND USE THEREOF” (ZHEJIANG HISUN PHARMACEUTICAL CO., LTD., priority 2022, published 2025).
Like-named read-outs stand apart in the source and are kept apart here.

Assays:
[1] = Comparative solubility assay in water; format: physicochemical
[2] = tested on: hepatocellular carcinoma cells Hep3B; settings: reported in background for PCT/CN2017/085135 compound, read-out: inhibitory activity against hepatocellular carcinoma cells Hep3B, IC50; cited from earlier work
[3] = Stability test (25° C., 40° C., light irradiation of 4500 LX, 30 days); format: physicochemical
Description: The compound represented by formula (I) of the present disclosure was subjected to HPLC for purity detection under the following conditions. The used chromatographic column was Waters, XBridge C18 4.6×150 mm, 3.5 μm; the mobile phase A consisted of buffer solution: acetonitrile=70:30, the mobile phase B consisted of buffer solution: acetonitrile=[…], the buffer solution was prepared by weighing 9.13 g of dipotassium hydrogen phosphate trihydrate in 2,000 mL of pure water, and adjusting pH using phosphoric acid to 8.0; the detection wavelength was 234 nm; the flow rate was 1.0 mL/min; the column temperature was 25° C.; and the injection volume was 10 μL.

[4] = Pharmacokinetic experiment in ICR mice, single gavage; format: in vivo; settings: 75 mg·kg −1, single gavage
Description: Before and 0.25, 0.5, 1, 2, 4, 8, 10, 12 and 24 hours after administration, 0.15 mL blood was collected from fundus venous plexus and placed into anticoagulant tubes containing EDTA-K2.

[5] = stability at 25° C., day 0, HPLC
[6] = stability at 25° C., day 10, HPLC
[7] = stability at 25° C., day 30, HPLC
[8] = stability at 40° C., day 0, HPLC
[9] = stability at 40° C., day 10, HPLC
[10] = stability at 40° C., day 30, HPLC
[11] = stability under the light irradiation of 4500LX, day 0, HPLC
[12] = stability under the light irradiation of 4500LX, day 10, HPLC
[13] = stability under the light irradiation of 4500LX, day 30, HPLC

Structure (SMILES) | solubility in water at 25° C. [1] | IC50 [2] | solubility ([1]; 25 °C, thermodynamic from solid) | purity (%) [3, 5] | purity (%) [3, 6] | purity (%) [3, 7] | purity (%) [3, 8] | purity (%) [3, 9] | purity (%) [3, 10] | purity (%) [3, 11] | purity (%) [3, 12] | purity (%) [3, 13] | Tmax ([4]; ICR, mouse, in vivo, po, 75 mg/kg, read-out: Tmax) | solubility in water at 25° C. ([1]; listed as the crystal form A of the compound represented by formula (I)) | Tmax [4] | Cmax ([4]; mouse, in vivo, po) | half-life ([4]; mouse, in vivo, po) | AUC(0-t) ([4]; mouse, in vivo, po, 0-24 h sampling)
C=CC(=O)Nc1cc(N2CCN(CC)C3(CC3)C2)ccc1Nc1cc(N(C)C(=O)Nc2c(Cl)c(OC)cc(OC)c2Cl)ncn1 [N-(2-((6-(3-(2,6-dichloro-3,5-dimethoxyphenyl)-1-methylureido)pyrimidin-4-yl)amino)-5-(4-ethyl-4,7-diazaspiro[2.5]octane-7-yl)phenyl)acrylamide] | insoluble | 19 nM |  |  |  |  |  |  |  |  |  |  |  |  |  |  |  | 
C=CC(=O)Nc1cc(N2CCN(CC)C3(CC3)C2)ccc1Nc1cc(N(C)C(=O)Nc2c(Cl)c(OC)cc(OC)c2Cl)ncn1.CCS(=O)(=O)O.CCS(=O)(=O)O [amorphous form, N-(2-((6-(3-(2,6-dichloro-3,5-dimethoxyphenyl)-1-methylureido)pyrimidin-4-yl)amino)-5-(4-ethyl-4,7-diazaspiro[2.5]octan-7-yl)phenyl)acrylamide diethanesulfonate salt] |  |  | 115 mg/mL | 98.80% | 96.60% | 91.60% | 98.80% | 93.40% | 87.60% | 98.80% | 86.20% | 73.70% | 30 min |  |  |  |  | 
C=CC(=O)Nc1cc(N2CCN(CC)C3(CC3)C2)ccc1Nc1cc(N(C)C(=O)Nc2c(Cl)c(OC)cc(OC)c2Cl)ncn1.CCS(=O)(=O)O.CCS(=O)(=O)O [crystal form A, N-(2-((6-(3-(2,6-dichloro-3,5-dimethoxyphenyl)-1-methylureido)pyrimidin-4-yl)amino)-5-(4-ethyl-4,7-diazaspiro[2.5]octan-7-yl)phenyl)acrylamide diethanesulfonate salt] |  |  |  | 99.64% | 99.63% | 99.62% | 99.64% | 99.61% | 99.60% | 99.64% | 99.61% | 99.54% |  | 100 mg/mL | 36.6 min | 3980 ng/mL | 91.2 min | 9340 ng·h/mL
